{"source": "patent US11597708B2", "about": "“Inhibitors of heat shock factors and uses thereof” (HSF Pharmaceuticals SA, priority 2016, dated 2023)", "key": {"[1]": {"biological_target": "T1, HSF1 occupancy of the hspa1a promoter (Homo sapiens, UniProt Q00613)", "T1 construct": "functionally linked to an hsp70b promoter and therefore controlled by endogenous HSF1; endogenous in cells; host or cells: HeLa cells / HeLa-derived cell line Z74", "T1 sequence (Q00613 whole entry)": "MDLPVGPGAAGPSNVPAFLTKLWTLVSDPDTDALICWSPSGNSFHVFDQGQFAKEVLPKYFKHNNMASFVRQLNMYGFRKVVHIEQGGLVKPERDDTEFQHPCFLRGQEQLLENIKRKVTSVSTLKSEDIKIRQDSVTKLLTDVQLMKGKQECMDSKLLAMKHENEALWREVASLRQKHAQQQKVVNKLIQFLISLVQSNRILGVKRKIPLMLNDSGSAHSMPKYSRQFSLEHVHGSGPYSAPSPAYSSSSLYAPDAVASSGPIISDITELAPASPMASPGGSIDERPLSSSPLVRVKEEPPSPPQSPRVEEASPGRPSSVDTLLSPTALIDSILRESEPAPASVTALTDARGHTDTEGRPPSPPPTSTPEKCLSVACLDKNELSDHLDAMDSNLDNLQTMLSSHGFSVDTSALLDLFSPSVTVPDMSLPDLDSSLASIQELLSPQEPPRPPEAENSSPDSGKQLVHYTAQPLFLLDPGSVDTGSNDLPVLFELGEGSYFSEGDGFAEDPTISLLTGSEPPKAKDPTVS", "experiment": "Chromatin immunoprecipitation, HSF1 occupancy of hspa1a promoter in HeLa cells", "assay_type": "cell-based", "details": "12.5 μM for two hours, then heat-treated", "description": "FIG. 3. (A) HeLa cell cultures were mock-treated (−) or exposed for 2 hours to the indicated concentrations of compounds 058 or 115 and then heat-treated (HS) at 43° C. for 30 min. Top panels: HSF1 DNA-binding activities in cell extracts were determined by EMSA. The panels show the major HSF1-HSE DNA probe complexes. Middle panels: HSF1 levels assayed by western blot (WB). GAPDH served as a loading control. Bottom panels: HSF1 homooligomerization. Aliquots of extracts were EGS-treated and then analyzed by anti-HSF1 WB. The positions of pre-stained molecular weight marker proteins (MW, in thousands) are indicated to the right. Asterisks indicate the positions of monomeric and trimeric HSF1, respectively. (B) Relative occupancy of the hspa1a promoter was assessed by chromatin immunoprecipitation assay of HeLa cell cultures mock-treated (−) or treated with compounds 058 or 115 at 12.5 μM concentrations for 2 hours and then heat-treated (HS) at 43° C. for 30 min. Chromatin fragments were immunoprecipitated using HSF1 antibodies or an F4/80 LR (control) antibody, and associated hspa1a promoter DNA was quantified by real-time PCR.\nWe also investigated whether the compounds were capable of interfering with HSF1 oligomerization. Aliquots of the extracts were subjected to cross-linking with EGS (ethylene glycolbis(succinimidylsuccinate)) and then re-analyzed by anti-HSF1 WB. […]"}, "[2]": {"tested_on": "HeLa cells", "experiment": "Flow cytometric analysis of DNA (sub-G0/G1 fraction)", "assay_type": "cell-based, human", "details": "12.5 or 25 μM for up to 24 h", "description": "FIG. 6. (A) HeLa cell cultures were mock-exposed (−) or exposed to the indicated concentrations of compound 115 for 24 (left panel) or 96 (right panel) hours. Cell viability of total cultures, floating cells and attached cells was assayed using an Alamar Blue assay. (B) HeLa cell cultures were mock-exposed (−) or exposed to the indicated concentrations of compound 115 for 15-96 hours. Trypan Blue dye exclusion was employed to determine numbers of live cells (left panel) and relative levels of necrotic cells (right panel). (C) HeLa cell cultures were mock-exposed (−) or exposed to the indicated concentrations of compound 115 for 6 and 24 h. Shown are relative levels of early apoptotic cells (annexin-positive, 7 aminoactinomycin D-negative). (D) Flow cytometric analysis of DNA of HeLa cell cultures mock-exposed (−) or exposed to the indicated concentrations of compound 115 for 6, 15 and 24 hours. Relative levels of apoptotic cells are indicated.\nFurther studies were aimed at finding out whether IHSF-exposed cancer cells were only growth-arrested or were actually killed and, if they were killed, by what mechanism. […] The viability signal (in whole cultures and, more dramatically, when only attached cells were analyzed) decreased as a function of IHSF concentration. […] Stained (necrotic) and unstained (live) cells were counted (FIG. 6B). […]"}, "[3]": {"tested_on": "PC-3 tumor xenograft", "experiment": "Human prostate cancer PC-3 xenograft model in athymic mice", "assay_type": "in vivo", "details": "for tumor growth: period of daily administration (7 days)", "description": "Prostate cancer cell line PC-3 was obtained from ATTC and grown in tissue culture under standard conditions. Groups (8 animals) of athymic mice (6-7 weeks old, male, obtained from Harlan) were inoculated subcutaneously on the right flank with 5×10^6 PC-3 cells. Cells were administered as a 1:1 mixture of cells in medium and Matrigel. Treatment was initiated when tumor size reached about 200 mg, at which time the mice were randomized. Of the various groups in the experiment, one group received a daily intravenous dose (via the tail vein) of 2 mg IHSF 115 in an aqueous solution of Kleptose HPB (see Example 2.1) for 7 days, followed by additional dosing with 2 mg IHSF 115 every other day. Another group received a daily dose of 0.8 mg IHSF 115 in an aqueous solution of Kleptose HPB (see Example 2.1) for 7 days, followed by additional dosing with 0.8 mg IHSF 115 every other day. A control group was subjected to same regimen, administering vehicle (Kleptose HPB solution) only. Tumor size and weight were assessed periodically and recorded. Tumor size was estimated using calipers. Calculation: tumor weight (mg)=(a×b^2/2) where ‘b’ is the smallest diameter and ‘a’ is the largest diameter. […] Loss of weight for the period was less than 4%."}}, "data": [{"smiles": "CN(C(=O)/C=C/C1=NCCCO1)c1ncc(-c2cccnc2)s1", "note": "[IHSF 115, (E)-3-(5,6-Dihydro-4H-[1,3]oxazin-2-yl)-N-methyl-N-(5-pyridin-3-yl-thiazol-2-yl)-acrylamide]", "values": [{"measurement": "HSF1 occupancy of the hspa1a promoter (ChIP)", "setting": "[1]", "result": "not reduced substantially"}, {"measurement": "sub-G0/G1 fractions (% of cells included)", "setting": "[2]", "result": "≤ 6", "unit": "%"}, {"measurement": "tumor growth", "setting": "[3]; 0.8 mg daily dose in aqueous Kleptose HPB", "result": "smaller effect"}, {"measurement": "tumor growth", "setting": "[3]; 2 mg daily intravenous in aqueous Kleptose HPB", "result": "substantial (and statistically significant) reduction in tumor growth"}, {"measurement": "toxicity", "setting": "[3]; athymic mice, intravenous via the tail vein", "result": "No toxicity was observed, except for some local swelling in the inoculation region"}, {"measurement": "Loss of weight for the period", "setting": "[3]; period of daily administration", "result": "less than 4%"}]}]}
